Source: US7217711B2, “Piperazin-1-yl and 2-([1,4]diazepan-1-yl)-imidazo[4,5-d]-pyridazin-4-ones, the preparation thereof and their use as pharmaceutical compositions” (Boehringer Ingelheim International GmbH, priority 2003, dated 2007)
pIC50: −log10 of the molar value.

Target: T1, DPP-IV (Homo sapiens, UniProt P27487)
T1 construct: an extract of the human colon carcinoma cell line Caco-2 is used as the DPP IV source; endogenous in cells; host or cells: Caco-2 (human colon carcinoma), differentiated to induce DPP-IV expression; Nonidet-P40 solubilised extract
Assay: DPP-IV assay with extract of Caco-2 cells as DPP IV source, AFC substrate, fluorescence
Format: biochemical
Details: extract of human colon carcinoma cell line Caco-2; substrate 100 μM; 60 minutes at ambient temperature; read-out: DPP IV inhibition IC50
Experimental: The cell extract was obtained from cells solubilised in a buffer (10 mM Tris HCl, 0.15 M NaCl, 0.04 t.i.u. aprotinin, 0.5% Nonidet-P40, pH 8.0) by centrifugation at 35,000 g for 30 minutes at 4° C. (to remove cell debris).
The DPP-IV assay was carried out as follows:
50 μl of substrate solution (AFC; AFC is amido-4-trifluoromethylcoumarin), final concentration 100 μM, were placed in black microtitre plates. 20 μl of assay buffer (final concentrations 50 mM Tris HCl pH 7.8, 50 mM NaCl, 1% DMSO) was pipetted in. The reaction was started by the addition of 30 μl of solubilised Caco-2 protein (final concentration 0.14 μg of protein per well). The test substances under investigation were typically added prediluted to 20 μl, while the volume of assay buffer was then reduced accordingly. The reaction was carried out at ambient temperature, the incubation period was 60 minutes. […] Dummy values (corresponding to 0% activity) were obtained in mixtures with no Caco-2 protein (volume replaced by assay buffer), control values (corresponding to 100% activity) were obtained in mixtures without any added substance.

T1 sequence (P27487 whole entry): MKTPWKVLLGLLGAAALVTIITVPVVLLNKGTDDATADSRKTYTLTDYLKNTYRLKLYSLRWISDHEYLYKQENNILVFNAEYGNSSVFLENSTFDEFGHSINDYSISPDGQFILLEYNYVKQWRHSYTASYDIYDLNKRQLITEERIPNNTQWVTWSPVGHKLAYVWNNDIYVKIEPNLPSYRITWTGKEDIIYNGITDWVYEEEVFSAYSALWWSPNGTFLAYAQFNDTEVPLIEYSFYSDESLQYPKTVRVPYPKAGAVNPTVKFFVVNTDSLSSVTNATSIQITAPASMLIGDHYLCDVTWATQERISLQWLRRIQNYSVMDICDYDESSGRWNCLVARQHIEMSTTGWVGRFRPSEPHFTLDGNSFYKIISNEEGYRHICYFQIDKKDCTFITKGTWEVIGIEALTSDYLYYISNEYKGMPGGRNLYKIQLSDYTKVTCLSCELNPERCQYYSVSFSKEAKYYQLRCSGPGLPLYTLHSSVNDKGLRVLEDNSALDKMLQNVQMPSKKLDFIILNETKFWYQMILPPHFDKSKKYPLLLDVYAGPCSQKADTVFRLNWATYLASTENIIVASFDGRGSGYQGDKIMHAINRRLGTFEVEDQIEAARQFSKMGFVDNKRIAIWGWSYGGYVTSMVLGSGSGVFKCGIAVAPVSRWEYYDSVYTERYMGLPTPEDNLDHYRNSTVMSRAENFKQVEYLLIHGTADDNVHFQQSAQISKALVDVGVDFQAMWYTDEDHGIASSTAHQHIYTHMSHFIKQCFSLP

SMILES	pIC50
CC#CCn1c(N2CCNCC2)nc2cnn(Cc3nc4c(C)cccc4o3)c(=O)c21 [1(9), 2-(piperazin-1-yl)-3-(2-butyn-1-yl)-5-[(4-methyl-benzoxazol-2-yl)methyl]-3,5-dihydro-imidazo[4,5-d]pyridazin-4-one]	8.52
CC#CCn1c(N2CCNCC2)nc2cnn(Cc3ccc4c(c3)nnn4C)c(=O)c21 [1(11), 2-(piperazin-1-yl)-3-(2-butyn-1-yl)-5-[(1-methyl-1H-benzotriazol-5-yl)methyl]-3,5-dihydro-imidazo[4,5-d]pyridazin-4-one]	8.70
CC#CCn1c(N2CCCNCC2)nc2cnn(Cc3cc(C)c4nc(C)c(C)nc4c3)c(=O)c21 [1(2), 2-([1,4]diazepan-1-yl)-3-(2-butyn-1-yl)-5-[(2,3,8-trimethyl-quinoxalin-6-yl)methyl]-3,5-dihydro-imidazo[4,5-d]pyridazin-4-one]	7.77

Continued, values first:

pIC50	SMILES
7.85	CC#CCn1c(N2CCNCC2)nc2cnn(Cc3cc(C)c4nc(C)c(C)nc4c3)c(=O)c21 [Example 2, 2-(piperazin-1-yl)-3-(2-butyn-1-yl)-5-[(2,3,8-trimethyl-quinoxalin-6-yl)methyl]-3,5-dihydro-imidazo[4,5-d]pyridazin-4-one]
8.30	CC#CCn1c(N2CCCNCC2)nc2cnn(Cc3nc4c(C)cccc4o3)c(=O)c21 [1(13), 2-([1,4]diazepan-1-yl)-3-(2-butyn-1-yl)-5-[(4-methyl-benzoxazol-2-yl)methyl]-3,5-dihydro-imidazo[4,5-d]pyridazin-4-one]
8.40	CC#CCn1c(N2CCCNCC2)nc2cnn(Cc3ccc4c(c3)nnn4C)c(=O)c21 [1(12), 2-([1,4]diazepan-1-yl)-3-(2-butyn-1-yl)-5-[(1-methyl-1H-benzotriazol-5-yl)methyl]-3,5-dihydro-imidazo[4,5-d]pyridazin-4-one]

System: rats
Assay: Tolerability in rats after oral administration
Format: in vivo
Details: oral administration of 10 mg/kg

SMILES	toxic side effects
CC#CCn1c(N2CCNCC2)nc2cnn(Cc3nc(C)c4ccccc4n3)c(=O)c21 [Example 1, 2-(piperazin-1-yl)-3-(2-butyn-1-yl)-5-[(4-methyl-quinazolin-2-yl)methyl]-3,5-dihydro-imidazo[4,5-d]pyridazin-4-one]	no toxic side effects could be detected
